Reference: ChEMBL document CHEMBL5625277, “Systematical mutational analysis of teriparatide on anti-osteoporosis activity by alanine scanning” (Bioorg Med Chem Lett, 2024)

Assay: Cytotoxicity in pre-osteoblasts (unknown origin) assessed as cell death upto 5 uM by CCK8 assay
Type: toxicity, cell-based
Details: pre-osteoblast

Compound	Activity
CC[C@H](C)[C@H](NC(=O)[C@H](CCC(=O)O)NC(=O)[C@H](CO)NC(=O)[C@@H](NC(=O)[C@H](CO)NC(C)=O)C(C)C)C(=O)N[C@@H](CCC(N)=O)C(=O)N[C@@H](CC(C)C)C(=O)N[C@@H](CCSC)C(=O)N[C@@H](Cc1cnc[nH]1)C(=O)N[C@@H](CC(N)=O)C(=O)N[C@@H](CC(C)C)C(=O)NCC(=O)N[C@@H](CCCCN)C(=O)N[C@@H](Cc1cnc[nH]1)C(=O)N[C@@H](CC(C)C)C(=O)N[C@@H](CC(N)=O)C(=O)N[C@@H](CO)C(=O)N[C@@H](CCSC)C(=O)N[C@@H](CCC(=O)O)C(=O)N[C@@H](CCCNC(=N)N)C(=O)N[C@H](C(=O)N[C@@H](CCC(=O)O)C(=O)N[C@@H](Cc1c[nH]c2ccccc12)C(=O)N[C@@H](CC(C)C)C(=O)N[C@@H](CCCNC(=N)N)C(=O)N[C@@H](CCCCN)C(=O)N[C@@H](CCCCN)C(=O)N[C@@H](CC(C)C)C(=O)N[C@@H](CCC(N)=O)C(=O)N[C@@H](CC(=O)O)C(=O)N[C@H](C(=O)N[C@@H](Cc1cnc[nH]1)C(=O)N[C@@H](C)C(=O)N[C@@H](Cc1ccccc1)C(N)=O)C(C)C)C(C)C	Non-Toxic
CC[C@H](C)[C@H](NC(=O)[C@H](CCC(=O)O)NC(=O)[C@H](CO)NC(=O)[C@@H](NC(=O)[C@H](CO)NC(C)=O)C(C)C)C(=O)N[C@@H](CCC(N)=O)C(=O)N[C@@H](CC(C)C)C(=O)N[C@@H](CCSC)C(=O)N[C@@H](Cc1cnc[nH]1)C(=O)N[C@@H](CC(N)=O)C(=O)N[C@@H](CC(C)C)C(=O)NCC(=O)N[C@@H](CCCCN)C(=O)N[C@@H](Cc1cnc[nH]1)C(=O)N[C@@H](CC(C)C)C(=O)N[C@@H](CC(N)=O)C(=O)N[C@@H](CO)C(=O)N[C@@H](CCSC)C(=O)N[C@@H](C)C(=O)N[C@@H](CCCNC(=N)N)C(=O)N[C@H](C(=O)N[C@@H](CCC(=O)O)C(=O)N[C@@H](Cc1c[nH]c2ccccc12)C(=O)N[C@@H](CC(C)C)C(=O)N[C@@H](CCCNC(=N)N)C(=O)N[C@@H](CCCCN)C(=O)N[C@@H](CCCCN)C(=O)N[C@@H](CC(C)C)C(=O)N[C@@H](CCC(N)=O)C(=O)N[C@@H](CC(=O)O)C(=O)N[C@H](C(=O)N[C@@H](Cc1cnc[nH]1)C(=O)N[C@@H](CC(N)=O)C(=O)N[C@@H](Cc1ccccc1)C(N)=O)C(C)C)C(C)C	Non-Toxic
CC[C@H](C)[C@H](NC(=O)[C@H](CCC(=O)O)NC(=O)[C@H](CO)NC(=O)[C@@H](NC(=O)[C@H](CO)NC(C)=O)C(C)C)C(=O)N[C@@H](CCC(N)=O)C(=O)N[C@@H](CC(C)C)C(=O)N[C@@H](CCSC)C(=O)N[C@@H](C)C(=O)N[C@@H](CC(N)=O)C(=O)N[C@@H](CC(C)C)C(=O)NCC(=O)N[C@@H](CCCCN)C(=O)N[C@@H](Cc1cnc[nH]1)C(=O)N[C@@H](CC(C)C)C(=O)N[C@@H](CC(N)=O)C(=O)N[C@@H](CO)C(=O)N[C@@H](CCSC)C(=O)N[C@@H](CCC(=O)O)C(=O)N[C@@H](CCCNC(=N)N)C(=O)N[C@H](C(=O)N[C@@H](CCC(=O)O)C(=O)N[C@@H](Cc1c[nH]c2ccccc12)C(=O)N[C@@H](CC(C)C)C(=O)N[C@@H](CCCNC(=N)N)C(=O)N[C@@H](CCCCN)C(=O)N[C@@H](CCCCN)C(=O)N[C@@H](CC(C)C)C(=O)N[C@@H](CCC(N)=O)C(=O)N[C@@H](CC(=O)O)C(=O)N[C@H](C(=O)N[C@@H](Cc1cnc[nH]1)C(=O)N[C@@H](CC(N)=O)C(=O)N[C@@H](Cc1ccccc1)C(N)=O)C(C)C)C(C)C	Non-Toxic
CC[C@H](C)[C@H](NC(=O)[C@H](C)NC(=O)[C@H](CO)NC(=O)[C@@H](NC(=O)[C@H](CO)NC(C)=O)C(C)C)C(=O)N[C@@H](CCC(N)=O)C(=O)N[C@@H](CC(C)C)C(=O)N[C@@H](CCSC)C(=O)N[C@@H](Cc1cnc[nH]1)C(=O)N[C@@H](CC(N)=O)C(=O)N[C@@H](CC(C)C)C(=O)NCC(=O)N[C@@H](CCCCN)C(=O)N[C@@H](Cc1cnc[nH]1)C(=O)N[C@@H](CC(C)C)C(=O)N[C@@H](CC(N)=O)C(=O)N[C@@H](CO)C(=O)N[C@@H](CCSC)C(=O)N[C@@H](CCC(=O)O)C(=O)N[C@@H](CCCNC(=N)N)C(=O)N[C@H](C(=O)N[C@@H](CCC(=O)O)C(=O)N[C@@H](Cc1c[nH]c2ccccc12)C(=O)N[C@@H](CC(C)C)C(=O)N[C@@H](CCCNC(=N)N)C(=O)N[C@@H](CCCCN)C(=O)N[C@@H](CCCCN)C(=O)N[C@@H](CC(C)C)C(=O)N[C@@H](CCC(N)=O)C(=O)N[C@@H](CC(=O)O)C(=O)N[C@H](C(=O)N[C@@H](Cc1cnc[nH]1)C(=O)N[C@@H](CC(N)=O)C(=O)N[C@@H](Cc1ccccc1)C(N)=O)C(C)C)C(C)C	Non-Toxic
CC[C@H](C)[C@H](NC(=O)[C@H](CCC(=O)O)NC(=O)[C@H](CO)NC(=O)[C@@H](NC(=O)[C@H](CO)NC(C)=O)C(C)C)C(=O)N[C@@H](CCC(N)=O)C(=O)N[C@@H](CC(C)C)C(=O)N[C@@H](CCSC)C(=O)N[C@@H](Cc1cnc[nH]1)C(=O)N[C@@H](CC(N)=O)C(=O)N[C@@H](C)C(=O)NCC(=O)N[C@@H](CCCCN)C(=O)N[C@@H](Cc1cnc[nH]1)C(=O)N[C@@H](CC(C)C)C(=O)N[C@@H](CC(N)=O)C(=O)N[C@@H](CO)C(=O)N[C@@H](CCSC)C(=O)N[C@@H](CCC(=O)O)C(=O)N[C@@H](CCCNC(=N)N)C(=O)N[C@H](C(=O)N[C@@H](CCC(=O)O)C(=O)N[C@@H](Cc1c[nH]c2ccccc12)C(=O)N[C@@H](CC(C)C)C(=O)N[C@@H](CCCNC(=N)N)C(=O)N[C@@H](CCCCN)C(=O)N[C@@H](CCCCN)C(=O)N[C@@H](CC(C)C)C(=O)N[C@@H](CCC(N)=O)C(=O)N[C@@H](CC(=O)O)C(=O)N[C@H](C(=O)N[C@@H](Cc1cnc[nH]1)C(=O)N[C@@H](CC(N)=O)C(=O)N[C@@H](Cc1ccccc1)C(N)=O)C(C)C)C(C)C	Non-Toxic
CC[C@H](C)[C@H](NC(=O)[C@H](CCC(=O)O)NC(=O)[C@H](CO)NC(=O)[C@@H](NC(=O)[C@H](CO)NC(C)=O)C(C)C)C(=O)N[C@@H](CCC(N)=O)C(=O)N[C@@H](CC(C)C)C(=O)N[C@@H](CCSC)C(=O)N[C@@H](Cc1cnc[nH]1)C(=O)N[C@@H](CC(N)=O)C(=O)N[C@@H](CC(C)C)C(=O)NCC(=O)N[C@@H](CCCCN)C(=O)N[C@@H](Cc1cnc[nH]1)C(=O)N[C@@H](CC(C)C)C(=O)N[C@@H](CC(N)=O)C(=O)N[C@@H](CO)C(=O)N[C@@H](CCSC)C(=O)N[C@@H](CCC(=O)O)C(=O)N[C@@H](C)C(=O)N[C@H](C(=O)N[C@@H](CCC(=O)O)C(=O)N[C@@H](Cc1c[nH]c2ccccc12)C(=O)N[C@@H](CC(C)C)C(=O)N[C@@H](CCCNC(=N)N)C(=O)N[C@@H](CCCCN)C(=O)N[C@@H](CCCCN)C(=O)N[C@@H](CC(C)C)C(=O)N[C@@H](CCC(N)=O)C(=O)N[C@@H](CC(=O)O)C(=O)N[C@H](C(=O)N[C@@H](Cc1cnc[nH]1)C(=O)N[C@@H](CC(N)=O)C(=O)N[C@@H](Cc1ccccc1)C(N)=O)C(C)C)C(C)C	Non-Toxic
CC[C@H](C)[C@H](NC(=O)[C@H](CCC(=O)O)NC(=O)[C@H](CO)NC(=O)[C@@H](NC(=O)[C@H](CO)NC(C)=O)C(C)C)C(=O)N[C@@H](CCC(N)=O)C(=O)N[C@@H](CC(C)C)C(=O)N[C@@H](CCSC)C(=O)N[C@@H](Cc1cnc[nH]1)C(=O)N[C@@H](CC(N)=O)C(=O)N[C@@H](CC(C)C)C(=O)NCC(=O)N[C@@H](CCCCN)C(=O)N[C@@H](Cc1cnc[nH]1)C(=O)N[C@@H](CC(C)C)C(=O)N[C@@H](CC(N)=O)C(=O)N[C@@H](CO)C(=O)N[C@@H](CCSC)C(=O)N[C@@H](CCC(=O)O)C(=O)N[C@@H](CCCNC(=N)N)C(=O)N[C@@H](C)C(=O)N[C@@H](CCC(=O)O)C(=O)N[C@@H](Cc1c[nH]c2ccccc12)C(=O)N[C@@H](CC(C)C)C(=O)N[C@@H](CCCNC(=N)N)C(=O)N[C@@H](CCCCN)C(=O)N[C@@H](CCCCN)C(=O)N[C@@H](CC(C)C)C(=O)N[C@@H](CCC(N)=O)C(=O)N[C@@H](CC(=O)O)C(=O)N[C@H](C(=O)N[C@@H](Cc1cnc[nH]1)C(=O)N[C@@H](CC(N)=O)C(=O)N[C@@H](Cc1ccccc1)C(N)=O)C(C)C	Non-Toxic
CC[C@H](C)[C@H](NC(=O)[C@H](CCC(=O)O)NC(=O)[C@H](CO)NC(=O)[C@@H](NC(=O)[C@H](CO)NC(C)=O)C(C)C)C(=O)N[C@@H](CCC(N)=O)C(=O)N[C@@H](CC(C)C)C(=O)N[C@@H](CCSC)C(=O)N[C@@H](Cc1cnc[nH]1)C(=O)N[C@@H](CC(N)=O)C(=O)N[C@@H](CC(C)C)C(=O)NCC(=O)N[C@@H](CCCCN)C(=O)N[C@@H](C)C(=O)N[C@@H](CC(C)C)C(=O)N[C@@H](CC(N)=O)C(=O)N[C@@H](CO)C(=O)N[C@@H](CCSC)C(=O)N[C@@H](CCC(=O)O)C(=O)N[C@@H](CCCNC(=N)N)C(=O)N[C@H](C(=O)N[C@@H](CCC(=O)O)C(=O)N[C@@H](Cc1c[nH]c2ccccc12)C(=O)N[C@@H](CC(C)C)C(=O)N[C@@H](CCCNC(=N)N)C(=O)N[C@@H](CCCCN)C(=O)N[C@@H](CCCCN)C(=O)N[C@@H](CC(C)C)C(=O)N[C@@H](CCC(N)=O)C(=O)N[C@@H](CC(=O)O)C(=O)N[C@H](C(=O)N[C@@H](Cc1cnc[nH]1)C(=O)N[C@@H](CC(N)=O)C(=O)N[C@@H](Cc1ccccc1)C(N)=O)C(C)C)C(C)C	Non-Toxic
CC[C@H](C)[C@H](NC(=O)[C@H](CCC(=O)O)NC(=O)[C@H](CO)NC(=O)[C@H](C)NC(=O)[C@H](CO)NC(C)=O)C(=O)N[C@@H](CCC(N)=O)C(=O)N[C@@H](CC(C)C)C(=O)N[C@@H](CCSC)C(=O)N[C@@H](Cc1cnc[nH]1)C(=O)N[C@@H](CC(N)=O)C(=O)N[C@@H](CC(C)C)C(=O)NCC(=O)N[C@@H](CCCCN)C(=O)N[C@@H](Cc1cnc[nH]1)C(=O)N[C@@H](CC(C)C)C(=O)N[C@@H](CC(N)=O)C(=O)N[C@@H](CO)C(=O)N[C@@H](CCSC)C(=O)N[C@@H](CCC(=O)O)C(=O)N[C@@H](CCCNC(=N)N)C(=O)N[C@H](C(=O)N[C@@H](CCC(=O)O)C(=O)N[C@@H](Cc1c[nH]c2ccccc12)C(=O)N[C@@H](CC(C)C)C(=O)N[C@@H](CCCNC(=N)N)C(=O)N[C@@H](CCCCN)C(=O)N[C@@H](CCCCN)C(=O)N[C@@H](CC(C)C)C(=O)N[C@@H](CCC(N)=O)C(=O)N[C@@H](CC(=O)O)C(=O)N[C@H](C(=O)N[C@@H](Cc1cnc[nH]1)C(=O)N[C@@H](CC(N)=O)C(=O)N[C@@H](Cc1ccccc1)C(N)=O)C(C)C)C(C)C	Non-Toxic
